# What was measured:
# [1] = system: Chlamydomonas reinhardtii; experiment: Dose-response curves of Chlamydomonas reinhardtii wild-type and mutagenized cells (strain 17); settings: mutagenized cells (strain 17) versus wild-type cells
# [2] = system: Chlamydomonas reinhardtii; experiment: Selection of Chlamydomonas reinhardtii strains on solid medium containing herbicide; type: cell-based; settings: solid medium containing 1×10^−7 M
smiles,measurement,setting,value
C#CCN1C(=O)C(F)(F)Oc2cc(F)c(-n3c(=O)n(C)c(=S)n(C)c3=O)cc21 [I.a.35],IC50 of strain 17 compared to Wild-type cells,[1],much lower IC50
same,growth of resistant mutagenized cells on solid medium,[2]; resistant cells (colonies 31 and 32),form colonies
same,growth of susceptible mutagenized cells on solid medium,[2]; susceptible cells,do not grow

# Reference: patent publication US12529066B2, “Plants having increased tolerance to herbicides” (BASF AGRO B.V., priority 2012, dated 2026)
